According to patent US20190364943A1, “NOVEL COMPOSITIONS FOR FLAVOR ENHANCEMENT” (International Flavors & Fragrances Inc., priority 2016, published 2019):

What was measured:
[1] = tested on: bitter taste; experiment: Effect on bitter taste, intensity scale 0 to 10 (panelists); assay type: in vivo, human; conditions: 2 ppm in caffeine in water (0.05% by weight); scale 0 to 10, control anchored as 5
Procedure: (§1) The effect of guanine and its nucleobase analog adenine on other basic tastes was examined and compared. The control solutions were prepared as follows:
(ii) A bitter control solution of caffeine in water (0.05% by weight);
(§2) Respective test solutions of adenine and guanine were prepared in different control solutions (2 or 20 ppm).
(§3) The taste perception of each sample was evaluated by a group of panelists using an intensity scale of 0 to 10, where 0=none, 5=moderate, 10=extremely strong. Panelists were instructed to anchor the intensity of the control solutions as 5 on the scale. The intensity scores were analyzed using one-way ANOVA with Post Hoc LSD multiple comparisons. Average intensity scores are reported in the following:
(§4) The effect of guanosine and its corresponding nucleotide, guanosine 5′-monophosphate (GMP), on additional basic tastes was examined and compared. The control solutions of sweet, bitter, salty and umami tastes were prepared as above in Example II. Respective test solutions of guanosine and GMP were prepared in different control solutions (2 or 20 ppm).

[2] = tested on: sour taste; experiment: Sour taste intensity score in citric acid base solution, scale 0 to 10 (panelists); assay type: in vivo, human; conditions: scale 0 to 10, base anchored as 5
Procedure: The effect of adenine and guanine on sour taste was examined and compared. Respective test sample solutions of adenine and guanine were prepared in the base solution (each of 5 and 100 ppb, respectively).
The sour taste perception of each sample was evaluated by a group of panelists using an intensity scale of 0 to 10, where 0=none, 5=moderate, 10=extremely strong. Panelists were instructed to anchor the intensity of the base solution as 5 on the scale. The intensity scores were analyzed using one-way ANOVA with Post Hoc LSD multiple comparisons. Average intensity scores are reported in the following: […]

[3] = tested on: umami taste; experiment: Effect on umami taste, intensity scale 0 to 10 (panelists); assay type: in vivo, human; conditions: 20 ppm in MSG in water (0.05% by weight); scale 0 to 10, control anchored as 5
Procedure: as §1
(iv) An umami control solution of monosodium glutamate (MSG) in water (0.05% by weight).
as §2, §3, §4

[4] = tested on: sweet taste; experiment: Effect on sweet taste, intensity scale 0 to 10 (panelists); assay type: in vivo, human; conditions: 20 ppm in sucrose in water (2.5% by weight); scale 0 to 10, control anchored as 5
Procedure: as §1
(i) A sweet control solution of sucrose in water (2.5% by weight);
as §2, §3, §4

[5] = tested on: salty taste; experiment: Effect on salty taste, intensity scale 0 to 10 (panelists); assay type: in vivo, human; conditions: 20 ppm in sodium chloride in water (0.3% by weight); scale 0 to 10, control anchored as 5
Procedure: as §1
(iii) A salty control solution of sodium chloride in water (0.3% by weight); and
as §2, §3, §4

[6] = tested on: sour taste; experiment: Paired comparison of sour taste, test sample solution vs citric acid base solution (sensory panel); assay type: in vivo, human; conditions: for Sour taste enhancement, in words (table footnote): 5 and 100 ppb in base solution (citric acid 400 ppm); for Result (sour taste vs base solution): paired comparison
Procedure: The enhancement of sour taste by guanine and guanosine was subsequently examined. A base solution of citric acid (HOC(COOH)(CH2COOH)2) in water (400 ppm) was prepared and used in the following examples of the present invention. Test sample solutions of guanine and guanosine were prepared in the base solution (each of 5 and 100 ppb, respectively).
Sample pairs (a base solution and a test sample solution) were presented in a blind and pseudorandom order to a sensory panel. The enhancement of sour taste was recorded based on the percentage of the panelists who ranked the sample sourer. Binomial statistical analysis was used to compare the enhancement of sour taste for each sample pair. Significance was at 95% Confidence Interval (p<0.05). The test results are as follows:
The effect of botanical extract such as Chrysanthemum parthenium extract on sour taste was examined. A test sample solution of the extract in the base solution (15 ppm) was prepared.
Sensory evaluation was conducted using the paired comparison method. A base solution and a test sample solution, unidentifiable by using 3-digit codes, were presented in a blind and pseudorandom order to a sensory panel. The enhancement of sour taste was recorded based on the percentage of the panelists who ranked the sample sourer. The data were analyzed using binomial statistical analysis.

[7] = Taste description of the compound alone in water; assay type: in vivo, human; conditions: 1 ppm
[8] = tested on: sour taste; experiment: Paired comparison of sour taste against control solution of citric acid 450 ppm (sensory panel); assay type: in vivo, human
Procedure: A control sample solution of citric acid in water (450 ppm) and a test sample solution of guanosine in the base solution (1.25 ppm) were prepared. Sample pairs of (i) a base solution and a control sample solution; and (ii) a test sample solution and a control sample solution were each presented in a blind and pseudorandom order to a sensory panel. The enhancement of sour taste was recorded based on the percentage of the panelists who ranked the sample sourer.

[9] = pH level of sample solutions; assay type: physicochemical
[10] = tested on: sour taste; experiment: Paired comparison of sour taste, GMP solution vs guanosine solution (sensory panel); assay type: in vivo, human
Procedure: The effect of guanosine and GMP on sour taste was examined and compared. Respective test sample solutions of GMP and guanosine were prepared in the base solution (each of 5 and 100 ppb, respectively).
Sample pairs (a GMP solution and a guanosine solution) were presented in a blind and pseudorandom order to a sensory panel. The enhancement of sour taste was recorded based on the percentage of the panelists who ranked the sample sourer. Binomial statistical analysis was used to compare the enhancement of sour taste for each sample pair. Significance was at 95% Confidence Interval (p<0.05).

[11] = 5 ppb in base solution (citric acid 400 ppm)
[12] = 100 ppb in base solution (citric acid 400 ppm)
[13] = 5 ppb in base solution (citric acid in water, 400 ppm)
[14] = 100 ppb in base solution (citric acid in water, 400 ppm)
[15] = guanosine 1.25 ppm in base solution (citric acid 400 ppm)

| Compound | Bitter, average intensity score [1] | Intensity Score (sour taste) [2, 11] | Intensity Score (sour taste) [2, 12] | Umami, average intensity score [3] | Sweet, average intensity score [4] | Salty, average intensity score [5] | Sour taste enhancement, in words (table footnote) [6] | Result (sour taste vs base solution) [6, 13] | Result (sour taste vs base solution) [6, 14] | Sour taste of the compound itself [7] | Taste description [7] | Sour taste enhancement and pH, in words [8, 15] | Sour taste enhancement compared with additional citric acid, in words [8, 15] | Panelist Selection (%), ranked sourer ([8]; test (citric acid 400 ppm + guanosine 1.25 ppm) vs control (citric acid 450 ppm)) [%] | pH Level ([9]; test solution: citric acid 400 ppm + guanosine 1.25 ppm (base alone pH 3.19)) | Result (which solution of the pair tasted sourer) ([10]; 5 ppb each in base solution (citric acid 400 ppm)) | Result (which solution of the pair tasted sourer) ([10]; 100 ppb each in base solution (citric acid 400 ppm)) | Panelist Selection (%), ranked sourer ([8]; control (citric acid 450 ppm) vs base (citric acid 400 ppm)) [%] | Panelist Selection (%), ranked sourer ([8]; control (citric acid 450 ppm) vs test (citric acid 400 ppm + guanosine 1.25 ppm)) [%] | pH Level ([9]; control solution: citric acid in water, 450 ppm) |
| --- | --- | --- | --- | --- | --- | --- | --- | --- | --- | --- | --- | --- | --- | --- | --- | --- | --- | --- | --- | --- |
| Nc1ncnc2nc[nH]c12 [Adenine, adenine, reference compound] | 6.33 | 5.14 | 5.73 | 5.02 | 5.76 | 5.16 | – | – | – | – | – | – | – | – | – | – | – | – | – | – |
| Nc1nc2c(ncn2[C@@H]2O[C@H](COP(=O)(O)O)[C@@H](O)[C@H]2O)c(=O)[nH]1 [GMP, guanosine 5′-monophosphate, reference compound] | 6.50 | – | – | 9.60 | 5.42 | 5.34 | – | – | – | – | – | – | – | – | – | – | – | – | – | – |
| Nc1nc2nc[nH]c2c(=O)[nH]1 [Guanine, guanine] | 6.50 | 6.44 | 7.08 | 4.82 | 4.80 | 5.06 | *Guanine and guanosine provided intense and lasting sour taste enhancement. | Sourer than the base solution | Sourer than the base solution | Neither guanine nor guanosine possessed sour taste | somewhat astringent, mouth-drying and mouth-coating | – | – | – | – | – | – | – | – | – |
| Nc1nc2c(ncn2[C@@H]2O[C@H](CO)[C@@H](O)[C@H]2O)c(=O)[nH]1 [Guanosine, guanosine] | 7.00 | – | – | 4.98 | 5.52 | 5.22 | *Guanine and guanosine provided intense and lasting sour taste enhancement. | Sourer than the base solution | Sourer than the base solution | Neither guanine nor guanosine possessed sour taste | somewhat astringent, mouth-drying and slightly bitter | enhanced sour taste without decreasing the pH level | greater than that was achieved by 50 ppm citric acid | 100 | 3.20 | Guanosine solution tasted sourer | Guanosine solution tasted sourer | – | – | – |
| O=C(O)CC(O)(CC(=O)O)C(=O)O [citric acid, reference compound] | – | – | – | – | – | – | – | – | – | – | – | – | – | – | – | – | – | 100 | 0 | 3.17 |
